{
  "source": "patent US6340703B1",
  "about": "“Treatment or prevention of osteoporosis” (Novogen, Inc., priority 1997, dated 2002)",
  "key": {"estrogen receptors": {"system": "estrogen receptors", "details": "relative to 17p-estradiol 100; cited from earlier work"}, "bone resorption": {"system": "bone resorption", "details": "Tobe et al 1997; cited from earlier work"}, "post-menopausal women [1]": {"system": "post-menopausal women", "test": "Greene Score for menopausal symptoms, 3 month study (Example 4)", "type": "in vivo, human", "details": "15 mg or 60 mg daily for 3 months, compared to placebo control group", "description": "A group of 36 post-menopausal women experiencing menopausal symptoms were treated with a composition containing either 15 mg daidzein or 60 mg daidzein administered on a daily basis for 3 months."}, "post-menopausal women [2]": {"system": "post-menopausal women", "test": "Greene Score for menopausal symptoms, 60 mg formononetin (Example 6)", "type": "in vivo, human", "details": "60 mg daily for three months, relative to a control group", "description": "15 post-menopausal women who are experiencing menopausal systems are each administered 60 mg formononetin daily for three months."}, "[3]": {"test": "pharmacokinetic study of formononetin following oral administration", "type": "in vivo", "details": "blood; human, oral 9.3 mg formononetin; read-out: half life in the blood stream (converted)", "description": "A pharmacokinetic study involving 16 human patients aged between 18 and 40 was conducted, to determine the pharmacokinetics of formononetin following oral administration. Each patient was orally administered 9.3 mg of formononetin with 200 ml of purified water and maintained a low isoflavone diet for one week prior to, and during the study. Blood samples were taken at 0, 0.25, 0.5, 0.75, 1.0, 1.5, 2.0, 2.5, 3, 4, 5, 6, 8, 10 and 12 and 24 hours post administration, and analysed for formononetin concentration."}, "post-menopausal women [4]": {"system": "post-menopausal women", "test": "six month double-blind placebo-controlled study of bone density and bone resorption markers (Example 7)", "type": "in vivo, human", "details": "25 mg, 50 mg or 75 mg daily, six months, with 1200 mg calcium per day", "description": "The second study (double-blind, placebo-controlled) involved a six month study of the effects of phytoestrogen formononetin on bone resorption markers in twenty post-menopausal women. The aim of the study was to evaluate the efficacy of a defined daily quantity of isoflavone at 25 mg, 50 mg or 75 mg on bone resorption makers in post menopausal women and compare these to normal controls The effects of isoflavones on endometrial thickness, circulatory lipids and coagulation factors were also evaluated. Subjects were also given supplemental calcium in a dose of 1200 mg per day."}, "post-menopausal women [5]": {"system": "post-menopausal women", "test": "bone density and bone turnover markers in high risk group for osteoporosis (Example 6)", "type": "in vivo, human", "details": "60 mg daily for three months, preliminary results", "description": "A similar study involving 10 post-menopausal women in a high risk group for osteoporosis were also administered 60 mg formononetin daily for three months."}, "endometrial cancer cells": {"system": "endometrial cancer cells", "details": "Markiewicz et al 1993; potentiated cancer cell growth; cited from earlier work"}},
  "data": [
    {"molecule": "COc1ccc(-c2coc3cc(O)cc(O)c3c2=O)cc1", "note": "[biochanin, reference compound]", "values": [
      {"measurement": "relative estrogenicity", "setting": "estrogen receptors", "value": 0.07}
    ]},
    {"molecule": "O=c1c(-c2ccc(O)cc2)coc2cc(O)ccc12", "note": "[daidzein, 7,4-dihydroxy isoflavone]", "values": [
      {"measurement": "relative estrogenicity", "setting": "estrogen receptors", "value": 0.09},
      {"measurement": "effect on bone resorption", "setting": "bone resorption", "value": "stimulates bone resorption"},
      {"measurement": "Greene Score for menopausal symptoms", "setting": "post-menopausal women [1]", "value": "significant decrease"}
    ]},
    {"molecule": "COc1ccc(-c2coc3cc(O)ccc3c2=O)cc1", "note": "[formononetin]", "values": [
      {"measurement": "Greene Score for menopausal symptoms", "setting": "post-menopausal women [2]", "value": "significant decrease"},
      {"measurement": "half-life", "setting": "[3]", "value": "~20", "unit": "h"},
      {"measurement": "relative estrogenicity", "setting": "estrogen receptors", "value": 0.01},
      {"measurement": "bone density at three sites of the forearm", "setting": "post-menopausal women [4]", "value": "significant improvement in bone density"},
      {"measurement": "protection against osteoporosis by bone density and bone turnover markers", "setting": "post-menopausal women [5]", "value": "protection against osteoporosis"},
      {"measurement": "Greene Score for menopausal symptoms", "setting": "post-menopausal women [1]", "value": "significant decrease"}
    ]},
    {"molecule": "O=c1c(-c2ccc(O)cc2)coc2cc(O)cc(O)c12", "note": "[genistein]", "values": [
      {"measurement": "estrogen effect on endometrial cancer cells", "setting": "endometrial cancer cells", "value": "exhibited an estrogen effect on endometrial cancer cells"}
    ]}
  ]
}
